Assay results from patent publication US11078206B2, “Amino-fluoropiperidine derivatives as kinase inhibitor” (Daewoong Pharmaceutical Co., Ltd., priority 2017, dated 2021).
pIC50: −log10 of the molar value. Each block holds one compound with its values, some of them ahead of it.

What was measured:
[1] = target: Recombinant purified human BTK (Homo sapiens (Human), UniProt Q06187); experiment: BTK kinase inhibitory activity (ADP Glo assay); details: read-out: BTK IC50, ATP 10 uM, 1 hour 30° C.
[2] = target: Recombinant purified human JAK3 (Homo sapiens (Human), UniProt P52333); experiment: JAK3 kinase inhibitory activity (ADP Glo assay); details: read-out: JAK3 IC50, ATP 5 uM, 1 hour 30° C.
Sequence of Recombinant purified human JAK3 (P52333 whole entry): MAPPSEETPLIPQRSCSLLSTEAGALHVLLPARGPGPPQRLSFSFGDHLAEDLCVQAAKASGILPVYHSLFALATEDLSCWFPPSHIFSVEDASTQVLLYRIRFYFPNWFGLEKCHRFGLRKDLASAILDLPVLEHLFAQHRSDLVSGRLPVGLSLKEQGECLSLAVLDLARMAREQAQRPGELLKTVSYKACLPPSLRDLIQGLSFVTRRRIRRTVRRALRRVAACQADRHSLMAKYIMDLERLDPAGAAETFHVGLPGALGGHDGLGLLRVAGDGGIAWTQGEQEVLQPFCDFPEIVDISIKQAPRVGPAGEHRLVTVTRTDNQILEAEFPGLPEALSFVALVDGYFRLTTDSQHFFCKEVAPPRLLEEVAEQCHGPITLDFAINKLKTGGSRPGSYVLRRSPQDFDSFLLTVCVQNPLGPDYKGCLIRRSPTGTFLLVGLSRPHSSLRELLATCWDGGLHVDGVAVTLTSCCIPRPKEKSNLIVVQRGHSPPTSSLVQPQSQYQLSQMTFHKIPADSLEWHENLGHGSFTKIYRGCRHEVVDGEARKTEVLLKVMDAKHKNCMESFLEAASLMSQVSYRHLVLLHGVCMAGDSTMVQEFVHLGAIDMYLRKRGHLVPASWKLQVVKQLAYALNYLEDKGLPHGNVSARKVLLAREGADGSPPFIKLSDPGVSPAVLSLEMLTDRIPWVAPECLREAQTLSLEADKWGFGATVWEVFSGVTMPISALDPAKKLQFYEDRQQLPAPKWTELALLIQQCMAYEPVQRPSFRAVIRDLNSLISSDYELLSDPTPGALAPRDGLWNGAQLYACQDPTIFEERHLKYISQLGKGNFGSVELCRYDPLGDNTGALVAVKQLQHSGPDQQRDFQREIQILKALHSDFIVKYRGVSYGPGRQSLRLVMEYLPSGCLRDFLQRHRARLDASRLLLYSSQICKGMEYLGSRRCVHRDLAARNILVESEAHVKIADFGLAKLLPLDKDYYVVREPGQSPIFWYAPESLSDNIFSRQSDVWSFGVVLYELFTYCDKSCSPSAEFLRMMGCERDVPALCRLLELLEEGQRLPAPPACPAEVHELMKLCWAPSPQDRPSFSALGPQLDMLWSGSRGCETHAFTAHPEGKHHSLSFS

[3] = test system: JAK3 kinase (STAT5 phosphorylation induced by IL-2 in HT-2 cells); experiment: JAK3-mediated cell assay (HT-2/IL-2 assay), STAT5 phosphorylation; assay type: cell-based; details: HT2, compound 30 minutes, IL-2 20 ng/ml 10 minutes, HTRF phospho-STAT5 (Tyr694)
Description: The inhibitory activities against JAK3 kinase at the cellular level were measured for the compounds prepared in the Examples through in vitro analysis of STAT5 phosphorylation induced by IL-2 stimulation in HT-2 cells. Specifically, STAT5 phosphorylation was analyzed using HTRF®phospho-STAT5 (Tyr694) assay kit (Cisbio, 64AT5PEG), which was purchased from Cisbio. HT-2 cells were cultured for 2 hours in growth factor-free medium. The cultured HT-2 cells were dispensed into 96-well plates by 50 ul so as to be a density of 2.5×10^5 cells/well. The compounds prepared in the previous Examples were prepared so as to be finally a 0.3% DMSO aqueous solution, and HT-2 cells was treated with the compounds for 30 minutes. After the compound treatment, IL-2 was prepared so as to be finally a concentration of 20 ng/ml, and HT-2 cells was treated for 10 minutes. The cells were then disrupted by treating lysis buffers for 30 minutes. The level of STAT5 phosphorylation was measured according to the instructions of HTRF® phospho-STAT5 assay kit, and the inhibitory activity of the compounds according to the invention was calculated. For the analysis of the results of each compound, Microsoft Excel was used, and IC50 values were calculated by SigmaPlot software.

Sequence of Recombinant purified human BTK (Q06187 whole entry): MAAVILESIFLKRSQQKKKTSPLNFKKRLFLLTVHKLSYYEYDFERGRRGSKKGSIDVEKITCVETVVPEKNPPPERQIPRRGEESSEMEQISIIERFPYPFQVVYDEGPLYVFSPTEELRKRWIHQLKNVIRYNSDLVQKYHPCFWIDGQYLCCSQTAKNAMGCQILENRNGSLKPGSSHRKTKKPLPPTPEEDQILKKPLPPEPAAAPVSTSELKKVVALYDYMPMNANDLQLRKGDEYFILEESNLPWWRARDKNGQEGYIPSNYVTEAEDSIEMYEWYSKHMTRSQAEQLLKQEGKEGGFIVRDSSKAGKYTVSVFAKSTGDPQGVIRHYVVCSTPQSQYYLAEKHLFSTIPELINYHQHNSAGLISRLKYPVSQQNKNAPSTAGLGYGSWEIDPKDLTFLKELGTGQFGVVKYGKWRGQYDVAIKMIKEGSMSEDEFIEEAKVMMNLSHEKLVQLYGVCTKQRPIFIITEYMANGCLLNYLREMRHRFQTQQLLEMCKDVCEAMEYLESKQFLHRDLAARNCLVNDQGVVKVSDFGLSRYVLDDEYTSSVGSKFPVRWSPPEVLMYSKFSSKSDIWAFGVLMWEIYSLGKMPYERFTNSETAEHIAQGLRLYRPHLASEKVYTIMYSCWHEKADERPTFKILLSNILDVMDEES

Structure (SMILES): C=CC(=O)N1CC[C@@H](F)[C@@H](Nc2nc(Nc3cnoc3)nc3[nH]cc(C)c23)C1 [Example 11, 1-((3S,4R)-4-fluoro-3-(2-(isoxazol-4-ylamino)-5-methyl-7H-pyrrolo[2,3-d]pyrimidin-4-ylamino)piperidin-1-yl)prop-2-en-1-one]
pIC50 [1]: 8.04
pIC50 [2]: 9.15
pIC50 [3]: 6.61

Structure (SMILES): C=CC(=O)N1CC[C@@H](F)[C@@H](Nc2nc(Nc3cnsc3)nc3[nH]cc(Cl)c23)C1 [Example 5, 1-((3S,4R)-3-(5-chloro-2-(isothiazol-4-ylamino)-7H-pyrrolo[2,3-d]pyrimidin-4-ylamino)-4-fluoropiperidin-1-yl)prop-2-en-1-one]
pIC50 [1]: 8.41
pIC50 [2]: 9.22
pIC50 [3]: 6.54

Structure (SMILES): C=CC(=O)N1CC[C@@H](F)[C@@H](Nc2nc(Nc3cnn(C4CC4)c3)nc3[nH]cc(Cl)c23)C1 [Example 3, 1-((3S,4R)-3-(5-chloro-2-(1-cyclopropyl-1H-pyrazol-4-ylamino)-7H-pyrrolo[2,3-d]pyrimidin-4-ylamino)-4-fluoropiperidin-1-yl)prop-2-en-1-one]
pIC50 [1]: 9.10
pIC50 [2]: 10.00

Structure (SMILES): C=CC(=O)N1CC[C@@H](F)[C@@H](Nc2nc(Nc3cnn(CC(F)F)c3)nc3[nH]cc(C#N)c23)C1 [Example 7, 4-((3S,4R)-1-acryloyl-4-fluoropiperidin-3-ylamino)-2-(1-(2,2-difluoroethyl)-1H-pyrazol-4-ylamino)-7H-pyrrolo[2,3-d]pyrimidine-5-carbonitrle]
pIC50 [1]: 9.10
pIC50 [2]: 9.70

Structure (SMILES): C=CC(=O)N1CC[C@@H](F)[C@@H](Nc2nc(Nc3cnn(C4CC4)c3)nc3[nH]cc(C#N)c23)C1 [Example 8, 4-((3S,4R)-1-acryloyl-4-fluoropiperidin-3-ylamino)-2-(1-cyclopropyl-1H-pyrazol-4-ylamino)-7H-pyrrolo[2,3-d]pyrimidine-5-carbonitrle]
pIC50 [1]: 9.05
pIC50 [2]: 9.52

Structure (SMILES): C=CC(=O)N1CC[C@@H](F)[C@@H](Nc2nc(Nc3cnoc3)nc3[nH]cc(C#N)c23)C1 [Example 9, 4-((3S,4R)-1-acryloyl-4-fluoropiperidin-3-ylamino)-2-(isoxazol-4-ylamino)-7H-pyrrolo[2,3-d]pyrimidine-5-carbonitrle]
pIC50 [1]: 8.66
pIC50 [2]: 9.52
pIC50 [3]: 6.55

Structure (SMILES): C=CC(=O)N1CC[C@@H](F)[C@@H](Nc2nc(Nc3cnoc3)nc3[nH]cc(Cl)c23)C1 [Example 4, 1-((3S,4R)-3-(5-chloro-2-(isoxazol-4-ylamino)-7H-pyrrolo[2,3-d]pyrimidin-4-ylamino)-4-fluoropiperidin-1-yl)prop-2-en-1-one]
pIC50 [1]: 8.49
pIC50 [2]: 9.70
pIC50 [3]: 7.29

Structure (SMILES): C=CC(=O)N1CC[C@@H](F)[C@@H](Nc2nc(Nc3cnn(CC)c3)nc3[nH]cc(C#N)c23)C1 [Example 6, 4-((3S,4R)-1-acryloyl-4-fluoropiperidin-3-ylamino)-2-(1-ethyl-1H-pyrazol-4-ylamino)-7H-pyrrolo[2,3-d]pyrimidine-5-carbonitrile]
pIC50 [1]: 9.05
pIC50 [2]: 9.70

Further lines, results first:

pIC50 [1]: 9.00
pIC50 [2]: 9.70
pIC50 [3]: 7.60
Structure (SMILES): C=CC(=O)N1CC[C@H](F)[C@@H](Nc2nc(Nc3cnn(CC)c3)nc3[nH]cc(Cl)c23)C1 [Example 12, 1-((3S,4S)-3-(5-chloro-2-(1-ethyl-1H-pyrazol-4-ylamino)-7H-pyrrolo[2,3-d]pyrimidin-4-ylamino)-4-fluoropiperidin-1-yl)prop-2-en-1-one]

pIC50 [1]: 9.10
pIC50 [2]: 10.00
pIC50 [3]: 7.31
Structure (SMILES): C=CC(=O)N1CC[C@@H](F)[C@@H](Nc2nc(Nc3cnn(CC(F)F)c3)nc3[nH]cc(Cl)c23)C1 [Example 2, 1-((3S,4R)-3-(5-chloro-2-(1-(2,2-difluoroethyl)-1H-pyrazol-4-ylamino)-7H-pyrrolo[2,3-d]pyrimidin-4-ylamino)-4-fluoropiperidin-1-yl)prop-2-en-1-one]

pIC50 [1]: 9.22
pIC50 [2]: 10.00
pIC50 [3]: 7.51
Structure (SMILES): C=CC(=O)N1CC[C@@H](F)[C@@H](Nc2nc(Nc3cnn(CC)c3)nc3[nH]cc(Cl)c23)C1 [Example 1, 1-((3S,4R)-3-(5-chloro-2-(1-ethyl-1H-pyrazol-4-ylamino)-7H-pyrrolo[2,3-d]pyrimidin-4-ylamino)-4-fluoropiperidin-1-yl)prop-2-en-1-one]

pIC50 [1]: 8.48
pIC50 [2]: 9.30
pIC50 [3]: 6.62
Structure (SMILES): C=CC(=O)N1CC[C@@H](F)[C@@H](Nc2nc(Nc3cnn(CC)c3)nc3[nH]cc(C)c23)C1 [Example 10, 1-((3S,4R)-3-(2-(1-ethyl-1H-pyrazol-4-ylamino)-5-methyl-7H-pyrrolo[2,3-d]pyrimidin-4-ylamino)-4-fluoropiperidin-1-yl)prop-2-en-1-one]
